Source: patent US4795743A, “2'-deamino-2'-hydroxyistamycin Bo derivatives of low toxicity” (Zaidan Hojin Biseibutsu Kagaku Kenkyu Kai, priority 1986, dated 1989)

Legend:
[1] = system: Staphylococcus aureus 209P; test: Antibacterial spectrum, standard serial dilution method of Japan Society of Chemotherapy; assay type: cell-based; conditions: S. aureus 209P, Muller-Hinton medium, 37° C., 18 hours, read-out: Minimum Growth Inhibitory Concentration
[2] = system: Staphylococcus aureus Smith; test: Antibacterial spectrum, standard serial dilution method; assay type: cell-based; conditions: S. aureus Smith, Muller-Hinton medium, 37° C., 18 hours, read-out: Minimum Growth Inhibitory Concentration
[3] = system: Staphylococcus aureus Ap 01; test: as above; assay type: cell-based; conditions: AP01, S. aureus Ap 01, Muller-Hinton medium, 37° C., 18 hours, read-out: Minimum Growth Inhibitory Concentration
[4] = system: Staphylococcus epidermidis 109; test: as above; assay type: cell-based; conditions: Staphylococcus epidermidis; S. epidermidis 109; Muller-Hinton medium, 37° C., 18 hours; read-out: Minimum Growth Inhibitory Concentration
[5] = system: Micrococcus flavus FDA 16; test: as above; assay type: cell-based; conditions: FDA16; Micrococcus flavus FDA 16; Muller-Hinton medium, 37° C., 18 hours; read-out: Minimum Growth Inhibitory Concentration
Sarcina lutea PCI 1001 = test: as above; assay type: cell-based; conditions: Micrococcus luteus, PCI1001; Sarcina lutea PCI 1001; Muller-Hinton medium, 37° C., 18 hours; read-out: Minimum Growth Inhibitory Concentration
Bacillus anthracis = test: microbe, parasite or virus in culture; assay type: cell-based; conditions: 18 h, read-out: Minimum Growth Inhibitory Concentration
[6] = system: Bacillus subtilis NRRL B-558; test: Antibacterial spectrum, standard serial dilution method; assay type: cell-based; conditions: NRRLB558; Bacillus subtilis NRRL B-558; Muller-Hinton medium, 37° C., 18 hours; read-out: Minimum Growth Inhibitory Concentration
[7] = system: Corynebacterium bovis 1810; test: as above; assay type: cell-based; conditions: Corynebacterium bovis 1810; Muller-Hinton medium, 37° C., 18 hours; read-out: Minimum Growth Inhibitory Concentration
[8] = system: Mycobacterium smegmatis ATCC 607; test: as above; assay type: cell-based; conditions: Mycolicibacterium smegmatis, ATCC607; Mycobacterium smegmatis ATCC 607; Muller-Hinton medium, 37° C., 18 hours; read-out: Minimum Growth Inhibitory Concentration
Escherichia coli K-12 = test: as above; assay type: cell-based; conditions: K12, E. coli K-12, Muller-Hinton medium, 37° C., 18 hours, read-out: Minimum Growth Inhibitory Concentration
Escherichia coli K-12 R5 = test: as above; assay type: cell-based; conditions: K12R5, 18 h, read-out: Minimum Growth Inhibitory Concentration
[9] = system: Escherichia coli K-12 R388; test: as above; assay type: cell-based; conditions: K12R388, 18 h, read-out: Minimum Growth Inhibitory Concentration
[10] = system: Escherichia coli K-12 J5 R11-2; test: as above; assay type: cell-based; conditions: K12J5R112, 18 h, read-out: Minimum Growth Inhibitory Concentration
[11] = system: Escherichia coli K-12 ML1410; test: as above; assay type: cell-based; conditions: K12ML1410, 18 h, read-out: Minimum Growth Inhibitory Concentration
[12] = system: Escherichia coli K-12 LA290 R64; test: as above; assay type: cell-based; conditions: K12LA290R64, 18 h, read-out: Minimum Growth Inhibitory Concentration
Shigella sonnei = test: as above; assay type: cell-based; conditions: Muller-Hinton medium, 37° C., 18 hours, read-out: Minimum Growth Inhibitory Concentration
Salmonella typhi T-63 = test: as above; assay type: cell-based; conditions: Salmonella enterica, 18 h, read-out: Minimum Growth Inhibitory Concentration
Proteus rettgeri GN311 = test: as above; assay type: cell-based; conditions: Providencia rettgeri; Proteus rettgeri GN311; Muller-Hinton medium, 37° C., 18 hours; read-out: Minimum Growth Inhibitory Concentration
Proteus rettgeri GN466 = test: as above; assay type: cell-based; conditions: Providencia rettgeri; Proteus rettgeri GN466; Muller-Hinton medium, 37° C., 18 hours; read-out: Minimum Growth Inhibitory Concentration
Serratia sp. SOU = test: as above; assay type: cell-based; conditions: Serratia sp. SOU; Muller-Hinton medium, 37° C., 18 hours; read-out: Minimum Growth Inhibitory Concentration
Serratia sp. 4 = test: as above; assay type: cell-based; conditions: Muller-Hinton medium, 37° C., 18 hours, read-out: Minimum Growth Inhibitory Concentration
Providencia sp. Pv16 = test: as above; assay type: cell-based; conditions: Providencia sp. Pv16; Muller-Hinton medium, 37° C., 18 hours; read-out: Minimum Growth Inhibitory Concentration
Providencia sp. 2991 = test: as above; assay type: cell-based; conditions: Providencia, SP.2991, 18 h, read-out: Minimum Growth Inhibitory Concentration
[13] = system: Pseudomonas aeruguinosa No.12; test: as above; assay type: cell-based, Pseudomonas aeruginosa; conditions: Muller-Hinton medium, 37° C., 18 hours, read-out: Minimum Growth Inhibitory Concentration
[14] = system: Pseudomonas aeruguinosa H9; test: as above; assay type: cell-based, Pseudomonas aeruginosa; conditions: Pseudomonas aeruguinosa H9; Muller-Hinton medium, 37° C., 18 hours; read-out: Minimum Growth Inhibitory Concentration
[15] = system: Pseudomonas aeruguinosa H11; test: as above; assay type: cell-based, Pseudomonas aeruginosa; conditions: Muller-Hinton medium, 37° C., 18 hours, read-out: Minimum Growth Inhibitory Concentration
[16] = system: Pseudomonas aeruguinosa TI-13; test: as above; assay type: cell-based, Pseudomonas aeruginosa; conditions: TI13; Pseudomonas aeruguinosa TI-13; Muller-Hinton medium, 37° C., 18 hours; read-out: Minimum Growth Inhibitory Concentration
[17] = system: Pseudomonas aeruguinosa GN315; test: as above; assay type: cell-based, Pseudomonas aeruginosa; conditions: Pseudomonas aeruguinosa GN315; Muller-Hinton medium, 37° C., 18 hours; read-out: Minimum Growth Inhibitory Concentration
[18] = system: Pseudomonas aeruguinosa 99; test: as above; assay type: cell-based, Pseudomonas aeruginosa; conditions: Muller-Hinton medium, 37° C., 18 hours, read-out: Minimum Growth Inhibitory Concentration
[19] = system: Pseudomonas aeruguinosa B-13; test: as above; assay type: cell-based, Pseudomonas aeruginosa; conditions: B13, Muller-Hinton medium, 37° C., 18 hours, read-out: Minimum Growth Inhibitory Concentration
[20] = system: Pseudomonas aeruguinosa K-Ps 102; test: as above; assay type: cell-based, Pseudomonas aeruginosa; conditions: KPS102; Pseudomonas aeruguinosa K-Ps 102; Muller-Hinton medium, 37° C., 18 hours; read-out: Minimum Growth Inhibitory Concentration

Measured: MIC

CNCC1CCC(N)C(OC2C(N)CC(OC)C(N(C)C(=O)CN)C2O)O1 (centres unmarked) [Istamycin B, istamycin B]
> 100 µg/mL: [18] | [19]
3.13 µg/mL: [11] | Shigella sonnei | Providencia sp. 2991
1.56 µg/mL: [3] | [9] | [12] | Proteus rettgeri GN311 | Providencia sp. Pv16
50 µg/mL: Serratia sp. 4 | [15]
12.5 µg/mL: [14]
25 µg/mL: [5] | Serratia sp. SOU | [13] | [16] | [17] | [20]
0.39 µg/mL: [2] | Sarcina lutea PCI 1001 | Salmonella typhi T-63
0.78 µg/mL: all other assays above
